In the assay the target is Methyl-CpG-binding domain protein 2 (Homo sapiens, UniProt Q9UBB5). Put plainly: MBD2-DBD methyl-oligonucleotide interaction blockers – biochemical, 5-meCpG oligonucleotide, dose response (AID 720645).

This note sets out measurements from BindingDB's records for doi:10.7270/Q20K2778 (The Scripps Research Institute Molecular Screening Center, 2013).

In general, IC50 refers to the concentration that inhibits the measured activity by half. A low value points to greater potency in that assay.

The structures appear in SMILES notation.

Sequence of Methyl-CpG-binding domain protein 2 (Q9UBB5 whole entry, the tested form may be a part): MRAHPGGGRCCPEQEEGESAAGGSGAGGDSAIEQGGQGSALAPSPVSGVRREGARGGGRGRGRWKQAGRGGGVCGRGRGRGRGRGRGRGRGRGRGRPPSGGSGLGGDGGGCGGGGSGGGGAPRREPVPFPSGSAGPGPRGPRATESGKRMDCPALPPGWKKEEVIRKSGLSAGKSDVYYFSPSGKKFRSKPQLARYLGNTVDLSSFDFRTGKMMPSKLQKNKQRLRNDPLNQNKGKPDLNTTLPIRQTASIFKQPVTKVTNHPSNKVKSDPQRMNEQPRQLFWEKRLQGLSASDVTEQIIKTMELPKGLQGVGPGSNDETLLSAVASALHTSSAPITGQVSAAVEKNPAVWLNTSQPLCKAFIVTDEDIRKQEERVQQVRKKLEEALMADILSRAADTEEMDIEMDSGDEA

For the compound `O=C(O)CSc1cc(NS(=O)(=O)c2ccc(Cl)cc2)c2ccccc2c1O` [2-[4-[(4-chlorophenyl)sulfonylamino]-1-hydroxynaphthalen-2-yl]sulfanylacetic acid], the IC50 turned out to be 4.87 µM.
The value for `COc1cc(C(c2c(C)[nH][nH]c2=O)c2c(C)[nH][nH]c2=O)cc([N+](=O)[O-])c1O` [4-[(3-methoxy-5-nitro-4-oxidanyl-phenyl)-(3-methyl-5-oxidanylidene-1,2-dihydropyrazol-4-yl)methyl]-5-methyl-1,2-dihydropyrazol-3-one] was 43.8 µM.
The figure for `COc1ccc(-c2csc(/C(C#N)=C/C3C=CC(=O)C([N+](=O)[O-])=C3)n2)cc1OC` (centres undefined) [(E)-2-[4-(3,4-Dimethoxy-phenyl)-thiazol-2-yl]-3-(4-hydroxy-3-nitro-phenyl)-acrylonitrile] is 4.78 µM; for `Cc1ccc2c(Cl)c(Cc3ccccc3)c(=S)[nH]c2n1` [MLS001182542] it is 8.02 µM.
